Results: patent publication US20250332105A1, “AMORPHOUS SOLID DISPERSION COMPRISING (S)-1-(1-ACRYLOYLPYRROLIDIN-3-YL)-3-((3,5-DIMETHOXYPHENYL)ETHYNYL)-5-(METHYLAMINO)-1H-PYRAZOLE-4-CARBOXAMIDE” (BEIJING INNOCARE PHARMA TECH CO., LTD., priority 2024, published 2025)
≈ marks a conversion by molar mass, not a printed value.

What was measured:
[1] = Glass transition temperature determination by DSC; type: physicochemical; settings: 0 to 210° C. at 10° C./min
Protocol: Type A: Accurately weighted Type A sample (2˜5 mg) was placed in a DSC pan which was then sealed and placed in TA Instruments Q2000. The pan was heated from room temperature to 230° C. at a rate of 20° C./min and after 5 min, rapidly cooled to 0° C. at a rate of 50° C./min. After another 5 min, the DSC analysis was carried out between 0 to 210° C. at a rate of 10° C./min.
ASD: Accurately weighted ASD sample (2˜5 mg) was placed in a DSC pan which was then sealed and placed in TA Instruments Q2000. The pan was heated from room temperature to 135° C. at a rate of 20° C./min and after 5 minutes, rapidly cooled to 0° C. at a rate of 50° C./min. After another 5 min, the DSC analysis was carried out between 0 to 210° C. at a rate of 10° C./min (FIG. 2 and FIG. 3).

[2] = Stability assessment of ASD (XRPD, DSC, solubility, relative substances after storage); type: physicochemical; settings: no storage (drug substance)
Text: Capped brown glass vials each containing an ASD sample (HPMCAS-10-SDD and PVPVA-10-HME) were placed inside stability chambers.

[3] = Solubility profiles in pH 6.8 phosphate buffer; type: physicochemical; settings: aqueous buffer, thermodynamic from solid, 37° C., 150 rpm, n = 3
Protocol: Phosphate buffer (pH 6.8): 3.40 g of potassium dihydrogen phosphate and 0.45 g of sodium hydroxide were dissolved in 500 mL of water.
Type A: About 8.0 mg of Type A sample was added to 20 mL of the phosphate buffer (pH 6.8) in a 30-mL glass vial. The vial was capped, placed in a shaker, and kept shaking with 150 rpm at 37° C. At indicated time intervals (10, 30, 60, 120, 240 min), a fraction of the suspension was removed and filtered through a 0.45-μm filter by discarding the first part of the filtrate. The filtrate was diluted and then analyzed by HPLC.
ASD: An appropriate amount of ASD (about 3.0 mg of Compound I) was added to 7.5 mL of the phosphate buffer (pH 6.8) in a 30-mL glass vial. The vial was capped, placed in a shaker, and kept shaking with 150 rpm at 37° C. At indicated time intervals (10, 30, 60, 120, 240 min), a fraction of the suspension was removed and centrifuged at 12,000 rpm for 5 minutes to give a clear solution that was then analyzed by HPLC.

[4] = In vivo PK, oral administration in beagle dogs; settings: dog, blood, fasted beagle dogs, 3 mg/kg, Type A as 0.5% MC suspension, HPMCAS-10-SDD as tablet
Protocol: Type A and HPMCAS-10-SDD were formulated with excipients, respectively. The PK properties of two formulations administered orally in beagle dogs were evaluated. Each formulation was tested in three dogs, each weighed 8˜12 kg.
A formulation was prepared by wet granulation. Firstly, mannitol, pregelatinized starch, sodium carboxymethyl starch and sodium dodecyl sulfate of different amounts were mixed evenly according to Table 8. Secondly, Type A and Povidone K30 were added into an appropriate amount of absolute alcohol, stirred, and mixed as adhesive. Finally, the adhesive was added to the evenly mixed excipients, followed by granulation, drying, addition of magnesium stearate, and mixing into a powder.
The above formulation was added to 0.5% methylcellulose (MC) to give a suspension containing 0.6 mg/mL of Compound I. The suspension was then orally administered to fasted beagle dogs at 5 mL/kg, which was equivalent to a dose of 3 mg/kg. Blood samples were collected at 0.25, 0.5, 1, 2, 4, 8 and 24 hours post dose. Concentrations of Compound I were quantified by LC-MS/MS analysis using an API-4500 mass spectrometer.
A formulation was prepared by dry granulation. […]
Four tablets were orally administered to fasted beagle dogs at a dose of 3 mg/kg. […] Concentrations of Compound I were quantified by LC-MS/MS analysis.

[5] = Equilibrium solubility in water; type: physicochemical; settings: after equilibrium in water at room temperature for 24 hours

For C=CC(=O)N1CC[C@H](n2nc(C#Cc3cc(OC)cc(OC)c3)c(C(N)=O)c2NC)C1 [Type A, (S)-1-(1-acryloylpyrrolidin-3-yl)-3-((3,5-dimethoxyphenyl)ethynyl)-5-(methylamino)-1H-pyrazole-4-carboxamide], the Tg [1] was 70.1 °C, the “Total Impurities” value [2] was 0.19% and the solubility at 10 min ([3]; 10 min) was 4.88 µg/mL (≈ 11.5 µM). It also gave a solubility at 30 min ([3]; 30 min) of 7.91 µg/mL (≈ 18.7 µM), a solubility at 60 min ([3]; 60 min) of 7.81 µg/mL (≈ 18.4 µM) and a solubility at 120 min ([3]; 120 min) of 7.62 µg/mL (≈ 18 µM). For the same compound, the solubility at 240 min ([3]; 240 min) was 8.47 µg/mL (≈ 20 µM), the AUC(0-t) [4] was 1250 ng·h/mL and the Cmax [4] was 270 ng/mL. The solubility [5] was 6.4 µg/mL (≈ 15.1 µM).
